Measured values: patent US20250270170A1, “2,3-DIMETHOXY-5-METHYL-1,4-BENZOQUINONE ALKYL ALCOHOL DERIVATIVE AND USE THEREOF” (BEIJING ANJIANXI BIO-MEDICAL TECHNOLOGY CO., LTD., priority 2021, published 2025)
Values joined by “and” are separate entries in the source; they are usually repeats but may differ in a detail not shown here. Identical values can stand only once. Marks after values point to notes of the source that are not given here.

Columns and labels:
[1] = Example 3: body weight of NCI-N87 tumor-bearing nude mice; format: in vivo, BALB/c nude mice; details: for Mean animal body weight / body weight loss rate: DDP 4/4/5/5 mg/kg i.p. QW×4
Method: The NCI-N87 cells in the logarithmic growth phase were collected, counted and resuspended in a serum-free RPMI-1640 medium, and the cell concentration was adjusted to 5×10^7 cells/mL. The cells were pipetted with a pipette to disperse them evenly, and the cells were put into a 50-mL centrifuge tube, which was placed in an ice box. A 1-mL syringe was used to draw the cell suspension, which was injected subcutaneously into the axilla of the front right limb of a nude mouse. Each animal was inoculated with 100 μL (5×10^6 cells/mouse) to establish an NCI-N87 transplanted tumor model in nude mice. After the inoculation, the animal status and tumor growth were regularly observed, and the tumor diameter was measured using an electronic vernier caliper. The data were input into an Excel spreadsheet to calculate the tumor volume. When the tumor volume reached 100 to 300 mm^3, 72 animals in good health and with similar tumor volumes were selected and divided into 9 groups (n=8) using randomized block method. The day of grouping was regarded as the first day of the assay (D1). After the start of the assay, the tumor diameter was measured twice a week, the tumor volume was calculated, and the animal body weight was also weighed and recorded. [table] The calculation formula of animal weight loss rate is: wherein BWt represents the animal body weight measured each time during the administration period; BWinitial represents the animal body weight when being grouped for administration. The assay data were calculated and processed statistically using Microsoft Office Excel 2007 software. Unless otherwise specified, the data were expressed as mean±standard error (Mean±SE), and t-test was used for comparison between two groups.

[2] = system: human gastric cancer NCI-N87 transplanted tumor; test: Example 7: tumor growth in NCI-N87 transplanted tumor model, alone and combined with DDP; format: in vivo, nude mice; details: DDP 4/2/1/4 mg/kg IP
[3] = Example 7: serum UREA content; format: in vivo, nude mice; details: DDP 4/2/1/4 mg/kg IP
[4] = Example 9: serum urea nitrogen (BUN) at the end of the assay; format: in vivo, nude mice; details: serum, end of assay, A549 model
Method: On the last day of the assay, CO2 inhalation anesthesia was used on the animals 1 hour after the administration (R01). Blood was collected through the heart, and a part of the whole blood was added with EDTA-K2 for anticoagulation. The plasma was separated by centrifugation at 4° C. and 1500 g for 10 minutes. The plasma was collected, and stored in a −40° C. to −20° C. freezer (if necessary, it can be used for the determination of the plasma drug concentration). No anticoagulant was added to the other part of the whole blood, and the serum was separated by centrifugation after the blood coagulated, which was used for the detection of blood urea nitrogen. After the blood collection, the tumor tissue was collected, weighed and photographed. Then, the tumor was divided into two parts, quickly cryopreserved by liquid nitrogen, and transferred to a −90° C. to −60° C. freezer for storage. Bilateral kidneys were collected and fixed in 10% formalin.

[5] = system: human colorectal cancer HT29 transplanted tumor; test: Example 10: tumor growth in HT-29 transplanted tumor model; format: in vivo, nude mice; details: HT-29 model, DDP 5 mg/kg i.p. QW × 3, R01 18 mg/kg i.g. BID × 28
Method: The human colorectal cancer cell lines HT-29 were obtained from the Cell Bank of the Type Culture Collection Committee of Chinese Academy of Sciences (CAS, cryopreserved in liquid nitrogen in this assay).
HT-29 cells were routinely cultured in a McCoy […] containing 10% fetal bovine serum under culture conditions of 37° C. and 5% CO2. The cells were digested with 0.25% trypsin, and passaged according to the cell growth conditions with a passaging ratio of 1:3 to 1:4.
On D1 of the assay, the HT-29 cells in the logarithmic growth phase were collected, counted and resuspended in serum-free McCoy, and the cell concentration was adjusted to 4×10^7 cells/mL. The cells were pipetted with a pipette to disperse them evenly, and the cells were put into a 50-mL centrifuge tube, which was placed in an ice box. A 1-mL syringe was used to draw the cell suspension, which was injected subcutaneously into the axilla of the front right limb of a nude mouse. Each animal was inoculated with 100 μL (4×10^6 cells/mouse) to establish a HT-29 transplanted tumor model in nude mice. After the inoculation, the animal status and tumor growth were regularly observed. On D12, the tumor diameter was measured using an electronic vernier caliper. The data were input into an Excel spreadsheet to calculate the tumor volume. Tumor-bearing mice in good health and with similar tumor volumes (103 to 179 mm^3) were selected and divided into groups using randomized block method. After the start of the assay, the tumor diameter was measured regularly, the tumor volume was calculated, and the animal body weight was also weighed and recorded.

SMILES: N.N.[Cl][Pt][Cl] [DDP, cisplatin]
- Mean animal body weight ([1]; D13): 18.5 ± 0.4 g
- Mean animal body weight ([1]; D16): 17.3 ± 0.4 g
- body weight loss rate ([1]; D16): (6.2%)
- Mean animal body weight ([1]; D20): 17.6 ± 0.4 g
- body weight loss rate ([1]; D20): (4.8%)
- Mean animal body weight ([1]; D23): 17.5 ± 0.4 g
- body weight loss rate ([1]; D23): (5.1%)
- Mean animal body weight ([1]; D27): 18.3 ± 0.6 g
- body weight loss rate ([1]; D27): (1.1%)
- Mean animal body weight ([1]; D30): 17.6 ± 0.4 g
- body weight loss rate ([1]; D30): (4.7%)
- Mean animal body weight ([1]; D34): 17.7 ± 0.4 g
- body weight loss rate ([1]; D34): (4.3%)
- Mean animal body weight ([1]; D37): 17.2 ± 0.4 g
- body weight loss rate ([1]; D37): (6.8%)
- Mean animal body weight ([1]; D44): 16.8 ± 0.4 g
- body weight loss rate ([1]; D44): (8.9%)
- effect on body weight compared with blank control group ([1]; NCI-N87 tumor-bearing nude mice, summary of Table 6): decreased significantly
- Mean tumor volume ([2]; D12): 155 ± 6 mm^3
- Mean tumor volume ([2]; D16): 241 ± 6 mm^3
- tumor growth inhibition rate (TGI) ([2]; D16): 15%
- Mean tumor volume ([2]; D19): 294 ± 6* mm^3
- tumor growth inhibition rate (TGI) ([2]; D19): 18%
- Mean tumor volume ([2]; D23): 341 ± 13** mm^3
- tumor growth inhibition rate (TGI) ([2]; D23): 28%
- Mean tumor volume ([2]; D26): 419 ± 22** mm^3
- tumor growth inhibition rate (TGI) ([2]; D26): 34%
- Mean tumor volume ([2]; D30): 543 ± 32** mm^3
- tumor growth inhibition rate (TGI) ([2]; D30): 40%
- Mean tumor volume ([2]; D33): 642 ± 35** mm^3
- tumor growth inhibition rate (TGI) ([2]; D33): 39%
- Mean tumor volume ([2]; D37): 810 ± 61* mm^3
- tumor growth inhibition rate (TGI) ([2]; D37): 36%
- Mean tumor volume ([2]; D40): 911 ± 80* mm^3
- tumor growth inhibition rate (TGI) ([2]; D40): 36%
- Mean tumor volume ([2]; D44): 1035 ± 95* mm^3
- tumor growth inhibition rate (TGI) ([2]; D44): 35%
- Serum UREA content, Mean [3]: 10.28 mmol serum^−1
- Serum UREA content, individual animals No1-No6 [3]: 8.06 mmol serum^−1 and 12.81 mmol serum^−1 and 15.45 mmol serum^−1 and 8.28 mmol serum^−1 and 10.47 mmol serum^−1 and 6.62 mmol serum^−1
- BUN (mmol/L) Mean ± SE ([4]; group B, DDP 4 mg/kg i.p. QW × 4): 21.17 ± 1.43 mmol/L
- BUN (mmol/L) Mean ± SE ([4]; group C, DDP 5/7/7/7 mg/kg i.p. QW × 4): 28.56 ± 1.79 mmol/L
- Mean tumor volume ± SE ([5]; D 12 (grouping)): 131 ± 8 mm^3
- Mean tumor volume ± SE ([5]; D 15): 178 ± 10 mm^3
- tumor growth inhibition rate ([5]; D 15): (37%)
- Mean tumor volume ± SE ([5]; D 19): 263 ± 11** mm^3
- tumor growth inhibition rate ([5]; D 19): (48%)
- Mean tumor volume ± SE ([5]; D 22): 383 ± 25** mm^3
- tumor growth inhibition rate ([5]; D 22): (36%)
- Mean tumor volume ± SE ([5]; D 26): 484 ± 28** mm^3
- tumor growth inhibition rate ([5]; D 26): (39%)
- Mean tumor volume ± SE ([5]; D 29): 582 ± 25** mm^3
- tumor growth inhibition rate ([5]; D 29): (44%)
- Mean tumor volume ± SE ([5]; D 33): 693 ± 34** mm^3
- tumor growth inhibition rate ([5]; D 33): (48%)
- Mean tumor volume ± SE ([5]; D 36): 777 ± 38** mm^3
- tumor growth inhibition rate ([5]; D 36): (47%)
- Mean tumor volume ± SE ([5]; D 40): 896 ± 56** mm^3
- tumor growth inhibition rate ([5]; D 40): (45%)
